IC50 data for 26 compounds are collected here from patent US20230031406A1, “COMPOUNDS AND COMPOSITIONS FOR TREATING CONDITIONS ASSOCIATED WITH NLRP ACTIVITY” (Novartis AG, priority 2018, published 2023).

One may read the IC50 as the concentration that gives 50% inhibition.

This assay deals with PMA-differentiated THP-1 cells. Nature of the assay: IL-1β production in PMA-differentiated THP-1 cells stimulated with gramicidin (hTHP-1 assay containing 2% fetal bovine serum; Procedures 1 and 2). Format: cell-based, human. As to conditions: 2% fetal bovine serum. The essentials: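 IL-1β release from PMA-differentiated THP-1 macrophage-like cells was triggered by 5 μM gramicidin for 2 h after 1 h compound exposure, then measured by HTRF.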

The mark [1] stands for this setting: Table B2, class symbols, read-out: hTHP-1 IC50.
The mark [2] stands for this setting: Table B1, class symbols, read-out: Average IC50 of compounds in hTHP-1 assay: hTHP-1 IC50.
Where [3] appears, read: Table B4, class symbols, read-out: hTHP-1 IC50.
Where [4] appears, read: Homo sapiens, THP-1, Table B3, hTHP-1 assay, class symbols, read-out: IC50.
Where [5] appears, read: Homo sapiens, THP-1, Table B2, class symbols, read-out: hTHP-1 IC50.
Setting [6] is: Homo sapiens, THP-1, Table B1, class symbols, read-out: Average IC50 of compounds in hTHP-1 assay: hTHP-1 IC50.
The mark [7] stands for this setting: Homo sapiens, THP-1, Table B2, numeric bounds, read-out: hTHP-1 IC50.
The mark [8] stands for this setting: Homo sapiens, THP-1, Table B1, numeric bounds, read-out: Average IC50 of compounds in hTHP-1 assay: hTHP-1 IC50.

Read-outs that look alike come from different tables or passages of the source.

In the case of `CCc1csc(S(N)(=O)=NC(=O)Nc2c3c(nc4c2CC[C@H]4C)CCC3)c1` (single isomer, unassigned) [Compound 721a, (S) or (R)-4-Ethyl-N′-(((R)-3-methyl-1,2,3,5,6,7-hexahydrodicyclopenta[b, e]pyridin-8-yl)carbamoylithiophene-2-sulfonimidamide], the IC50 under setting [1] was in the range of 5 to 30 µM. Consider `CC1CCc2c1nc1c(c2NC(=O)N=S(N)(=O)c2cc(C(C)(C)O)cs2)CCC1` (single isomer, unassigned) [Compound 141b, (R,R/S) or (S,R/S)-4-(2-hydroxypropan-2-yl)-N′-((3-methyl-1,2,3,5,6,7-hexahydro-dicyclopenta[b,e]pyridin-8-yl)carbamoyl)thiophene-2-sulfonimidamide], for which the IC50 under setting [2] is 0.04 to 0.2 µM. As to `CC(C)(O)c1ncc(S(N)(=O)=NC(=O)Nc2c3c(nc4c2CCC4F)CCC3)s1` (centres unmarked) [Compound 183, N′-((3-fluoro-1,2,3,5,6,7-hexahydrodicyclopenta[b,e]pyridin-8-yl)carbamoyl)-2-(2-hydroxypropan-2-yl)thiazole-5-sulfonimidamide], the IC50 under setting [2] was in the range of 5 to 30 µM. On to `CC1(C)CCc2c1nc1c(c2NC(=O)N=S(N)(=O)c2cnc(C(C)(O)CO)s2)CCC1` (single isomer, unassigned) [Compound 201c, (S, S) or (R, S) or (S, R) or (R. R)-2-(1,2-Dihydroxypropan-2-yl)-N′-((3,3-dimethyl-1,2,3,5,6,7-hexahydrodicyclopenta [b,e]pvridin-8-yl)carbamoyl) thiazole-5-sulfonimidamide], for which, under setting [1], the IC50 fell in the range of 5 to 30 µM. On to `CCn1cc(F)c(S(N)(=O)=NC(=O)Nc2c(-c3ccccc3)cnc3c2CCC3)n1` (single isomer, unassigned) [Example 793, (R) or (S)-1-ethyl-4-fluoro-N′-((3-phenyl-6,7-dihydro-5H-cyclopenta[b]pyridin-4-yl)carbamoyl)-1H-pyrazole-3-sulfonimidamide], for which the IC50 under setting [3] was in the range of 0.2 to 1 µM. Turning to `Cc1c(C(F)(F)F)nc2c(c1NC(=O)N=S(N)(=O)c1ccn(C)n1)CCC2` (single isomer, unassigned) [Example 693, (R) or (S)-1-Methyl-N′-((3-methyl-2-(trifluoromethyl)-6,7-dihydro-5H-cyclopenta[b]pyridin-4-yl)carbamoyl)-1H-pyrazole-3-sulfonimidamide], the IC50 under setting [4] fell in the range of 1 to 5 µM.

For `CCn1nc(S(N)(=O)=NC(=O)Nc2c3c(nc4c2CCC4(C)C)CCC3)cc1CO` (single isomer, unassigned) [Example 725, (S) or (R)-N′-((3,3-dimethyl-1,2,3,5,6,7-hexahydrodicyclopenta[b,e]pyridin-8-yl)carbamoyl)-1-ethyl-5-(hydroxymethyl)-1H-pyrazole-3-sulfonimidamide], the IC50 (Homo sapiens, THP-1, Table B3, hTHP-1 assay, numeric values, read-out: IC50) was > 30 µM. As to `NS(=O)(=NC(=O)Nc1c2c(nc3c1CCC31CC1)CCC2)c1cnn(C(F)F)c1` (single isomer, unassigned) [Compound 638a, (R) or (S)-1-(Difluoromethyl)-N′-((1′,5′,6′,7′-tetrahydro-2′H-spiro[cyclopropane-1,3′-dicyclopenta[b,e]pyridin]-8′-yl)carbamoyl)-1H-pyrazole-4-sulfonimidamide], the IC50 under setting [5] lay in the range of 1 to 5 µM. In the case of `Cc1c(C2CC2)nc2c(c1NC(=O)N=S(N)(=O)c1cnc(C(C)(C)O)s1)CCC2` (centres unmarked) [Compound 124, N′-((2-cyclopropyl-3-methyl-6,7-dihydro-5H-cyclopenta[b]pyridin-4-yl)carbamoyl)-2-(2-hydroxypropan-2-yl)thiazole-5-sulfonimidamide], the IC50 under setting [6] is 0.2 to 1 µM. Take `Cc1nc2c(c(NC(=O)N=S(N)(=O)c3cc(C(C)(C)O)cs3)c1C1CC1)CCC2` (single isomer, unassigned) [Compound 623a, (R) or (S)-N′-((3-cyclopropyl-2-methyl-6,7-dihydro-5H-cyclopenta[b]pyridin-4-yl)carbamoyl)-4-(2-hydroxypropan-2-yl)thiophene-2-sulfonimidamide]: the IC50 under setting [1] was 0.04 to 0.2 µM. For the compound `CO[C@H]1COc2c(S(N)(=O)=NC(=O)Nc3c(C)c(C(F)(F)F)nc4c3CCC4)cnn2C1` (single isomer, unassigned) [Example 656, (R) or (S)-(6R)-6-methoxy-N′-((3-methyl-2-(trifluoromethyl)-6,7-dihydro-5H-cyclopenta[b]pyridin-4-yl)carbamoyl)-6,7-dihydro-5H-pyrazolo[5,1-b][1,3] oxazine-3-sulfonimidamide], the IC50 under setting [4] was 1 to 5 µM. With `NS(=O)(=NC(=O)Nc1c2c(nc3c1CCC3)CCC2)c1ccn(CC(F)(F)F)n1` (centres unmarked) [Compound 685, N′-((1,2,3,5,6,7-hexahydrodicyclopenta[b,e]pyridin-8-yl)carbamoyl)-1-(2,2,2-trifluoroethyl)-1H-pyrazole-3-sulfonimidamide], under setting [5], the IC50 fell in the range of 1 to 5 µM. `NS(=O)(=NC(=O)Nc1c2c(nc3c1CCC31CC1)CCC2)c1cnn(C(F)F)c1` (single isomer, unassigned) [Compound 638b, (S) or (R)-1-(Difluoromethyl)-N′-((1′,5′,6′,7′-tetrahydro-2′H-spiro[cyclopropane-1,3′-dicyclopenta[b,e]pyridin]-8′-yl)carbamoyl)-1H-pyrazole-4-sulfonimidamide]: the IC50 under setting [7] is > 30 µM.

Take `CC(C)c1ncc(F)c(C(C)C)c1NC(=O)N=S(N)(=O)c1nc(C(C)(C)O)cs1` (single isomer, unassigned) [Compound 163a, (R) or (S)-N′-((5-fluoro-2,4-diisopropylpyridin-3-yl)carbamoyl)-4-(2-hydroxypropan-2-yl)thiazole-2-sulfonimidamide]: the IC50 under setting [2] was 0.04 to 0.2 µM.

`CC(C)(O)c1ncc(S(N)(=O)=NC(=O)Nc2nc3ccccc3c3c2CCC3)s1` (centres unmarked) [Compound 111, N′-((2,3-dihydro-1H-cyclopenta[c]quinolin-4-yl)carbamoyl)-2-(2-hydroxypropan-2-yl)thiazole-5-sulfonimidamide]: the IC50 under setting [8] is > 30 µM.

For the compound `CC1(C)CCc2c1nc1c(c2NC(=O)N=S(N)(=O)c2cnc(C(C)(CO)CO)s2)CCC1` (centres unmarked) [Compound 724], the IC50 under setting [5] was 0.2 to 1 µM. With `CCc1c(-c2ccccc2)nc2c(c1NC(=O)N=S(N)(=O)c1cnc(C(C)(C)O)s1)CCC2` (centres unmarked) [Compound 144, N′-((3-ethyl-2-phenyl-6,7-dihydro-5H-cyclopenta[b]pyridin-4-yl)carbamoyl)-2-(2-hydroxypropan-2-yl)thiazole-5-sulfonimidamide], the IC50 under setting [8] was > 30 µM. As to `CC(C)(O)c1ncc(S(N)(=O)=NC(=O)Nc2cc(-c3ccccc3)nc3c2CCC3)s1` (single isomer, unassigned) [Compound 142b, (S) or (R)-2-(2-hydroxy-propan-2-yl)-N′-((2-phenyl-6,7-dihydro-5H-cyclopenta[b]pyridin-4-yl)carbamoyl)thiazole-5-sulfonimidamide], the IC50 (Table B1, numeric bounds, read-out: Average IC50 of compounds in hTHP-1 assay: hTHP-1 IC50) was > 30 µM. Consider `Cc1c(C(=O)O)nc2c(c1NC(=O)N=S(N)(=O)c1cnc(C(C)(C)O)s1)CCC2` (centres unmarked) [Compound 712], for which, under setting [7], the IC50 is > 30 µM. As to `CC(C)c1ccnc(C(C)C)c1NC(=O)N=S(N)(=O)c1cnc(C(C)(C)O)s1` (centres unmarked) [Compound 110, N′-((2,4-diisopropylpyridin-3-yl)carbamoyl)-2-(2-hydroxypropan-2-yl)thiazole-5-sulfonimidamide], the IC50 under setting [6] is 5 to 30 µM. Still for that read-out and setting: for `Cn1nc(C(C)(C)O)cc1S(N)(=O)=NC(=O)Nc1c2c(nc3c1CCC3)CCC2` (centres unmarked) [Compound 166, N′-((1,2,3,5,6,7-hexahydrodicyclopenta[b,e]pyridin-8-yl)carbamoyl)-3-(2-hydroxypropan-2-yl)-1-methyl-1H-pyrazole-5-sulfonimidamide] the value was 5 to 30 µM. `CC(C)n1cc(F)c(S(N)(=O)=NC(=O)Nc2c3c(nc4c2CCC4)CCC3)n1` (single isomer, unassigned) [Example 785, (R) or (S)-4-fluoro-N′-((1,2,3,5,6,7-hexahydrodicyclopenta [b,e]pyridin-8-yl)carbamoyl)-1-isopropyl-1H-pyrazole-3-sulfonimidamide]: under setting [3], the IC50 lay in the range of 0.04 to 0.2 µM. `CCc1cc(F)c(S(N)(=O)=NC(=O)Nc2c3c(nc4c2CC[C@H]4C)CCC3)s1` (some centres unmarked) [Compound 720c]: the IC50 under setting [5] lay in the range of 0.2 to 1 µM. `CC(C)(O)c1cc(S(N)(=O)=NC(=O)Nc2c3c(nc4c2CCC4)CCC3)nn1-c1ccccc1` (single isomer, unassigned) [Compound 159b, (S) or (R)-N′-((1,2,3,5,6,7-hexahydrodicyclo-penta[b,e]pyridin-8-yl)carbamoyl)-5-(2-hydroxypropan-2-yl)-1-phenyl-1H-pyrazole-3-sulfonimidamide]: the IC50 under setting [2] fell in the range of 5 to 30 µM. Regarding `CCc1cc(F)c(S(N)(=O)=NC(=O)Nc2c3c(nc4c2CC[C@H]4C)CCC3)s1` (single isomer, unassigned) [Compound 720a, (R) or (S)-5-Ethyl-3-fluoro-N′-(((R)-3-methyl-1,2,3,5,6,7-hexahydrodicyclopenta[b, e]pyridin-8-yl)carbamoyl)thiophene-2-sulfonimidamide], the IC50 under setting [1] was 0.2 to 1 µM.

Regarding `CCC1CCc2c1nc1c(c2NC(=O)N=S(N)(=O)c2cnc(C(C)(C)O)s2)CCC1` (centres unmarked) [Compound 662, N′-((3-ethyl-1,2,3,5,6,7-hexahydrodicyclopenta[b,e]pyridin-8-yl)carbamoyl)-2-(2-hydroxypropan-2-yl)thiazole-5-sulfonimidamide], under setting [1], the IC50 was in the range of 5 to 30 µM.
